Test results from US20170064965A1, “ANTIMICROBIAL PEPTIDES DERIVED FROM PHAGE OF ACINETOBACTER BAUMANNII AND USE THEREOF” (Hualien Tzu Chi Hospital, Buddhist Tzu Chi Medical …, priority 2015, published 2017).
Converted amounts (≈) assume the structure as drawn. Like-named read-outs stand apart in the source and are kept apart here. Where a SMILES comes first, the peptide text is derived from it.

Tests used:
Type in all cases: cell-based
[1] = system: Acinetobacter baumannii ATCC 17978; assay: Broth microdilution MIC; conditions: ATCC 17978, standard strain
Protocol: (§1) Determination of Minimal Inhibitory Concentration (MIC)
(§2) In order to test the inhibitory effect of the antimicrobial peptides of the present disclosure, broth microdilution test was conducted to determine the minimal inhibition concentration (MIC) of the antimicrobial peptides against bacteria. The MIC represents the minimal concentration of the peptide which has the ability to inhibit bacteria growth completely.
(§3) Acinetobacter baumannii strains used in the examples in the conduction of the minimal inhibitory concentration and the minimum bactericidal concentration tests are shown in Table 2.

[2] = system: Acinetobacter baumannii ATCC 19606; assay: Broth microdilution MIC; conditions: ATCC 19606, standard strain
Protocol: as §1, §2, §3

[3] = system: Acinetobacter baumannii ATCC 17978CR; conditions: colistin-resistant
Protocol: (§4) Determination of Minimum Bactericidal Concentration (MBC)
(§5) In order to find out the minimum bactericidal concentration of the antimicrobial peptides of the present disclosure against bacteria, the surface of a suitable culture medium was covered by 100 μL of antimicrobial peptides at the minimal inhibitory concentration determined above with glass beads, then the medium was cultured at 37° C. for 24 hours, thereafter, and observation was conducted for 3 days. When no colony grew, it is the indication that the bacteria have been killed.
as §3

[4] = system: Acinetobacter baumannii ATCC 19606CR; conditions: colistin-resistant
Protocol: as §4, §5, §3

[5] = system: Acinetobacter baumannii 44820
Protocol: as §4, §5, §3

[6] = system: Acinetobacter baumannii 39181
Protocol: as §4, §5, §3

[7] = system: Acinetobacter baumannii BCRC 80276
Protocol: as §4, §5, §3

[8] = system: Acinetobacter baumannii 39400
Protocol: as §4, §5, §3

[9] = system: Acinetobacter baumannii ATCC 17978; assay: Minimum bactericidal concentration (MBC) determination; conditions: ATCC 17978, standard strain
Protocol: as §4, §5, §3

[10] = system: Acinetobacter baumannii ATCC 19606; assay: as above; conditions: ATCC 19606, standard strain
Protocol: as §4, §5, §3

[11] = system: Acinetobacter baumannii ATCC 17978CR; conditions: colistin-resistant; remark: listed apart in the source
Protocol: as §1, §2, §3

[12] = system: Acinetobacter baumannii ATCC 19606CR; conditions: colistin-resistant; remark: listed apart in the source
Protocol: as §1, §2, §3

[13] = system: Acinetobacter baumannii 44820; remark: listed apart in the source
Protocol: as §1, §2, §3

[14] = system: Acinetobacter baumannii 39181; remark: listed apart in the source
Protocol: as §1, §2, §3

[15] = system: Acinetobacter baumannii BCRC 80276; remark: listed apart in the source
Protocol: as §1, §2, §3

[16] = system: Acinetobacter baumannii 39400; remark: listed apart in the source
Protocol: as §1, §2, §3

Acinetobacter baumannii [17] = assay: Scanning electron microscope observation of bacterial destruction; conditions: 80 μM peptide, 1×10^9 CFU bacteria, 37° C., 1 hour
Acinetobacter baumannii [18] = assay: MBC determination
Protocol: as §4, §5

Acinetobacter baumannii [19] = assay: Broth microdilution MIC, summary in text
Protocol: as §1, §2

[20] = BCRC 80276, multidrug-resistant
[21] = Acinetobacter baumannii, summary of Table 3
[22] = multidrug-resistant Acinetobacter baumannii

Row | SMILES | Minimal Inhibitory Concentration (MIC) [1] [µM] | Minimal Inhibitory Concentration (MIC) [2] [µM] | Minimum Bactericidal Concentration (MBC) [3] [µM] | Minimum Bactericidal Concentration (MBC) [4] [µM] | Minimum Bactericidal Concentration (MBC) ([5]; 44820, multidrug-resistant) [µM] | Minimum Bactericidal Concentration (MBC) ([6]; 39181, multidrug-resistant) [µM] | Minimum Bactericidal Concentration (MBC) [7, 20] [µM] | Minimum Bactericidal Concentration (MBC) ([8]; 39400, multidrug-resistant) [µM] | Minimum Bactericidal Concentration (MBC) [9] [µM] | Minimum Bactericidal Concentration (MBC) [10] [µM] | Minimal Inhibitory Concentration (MIC) [11] [µM] | Minimal Inhibitory Concentration (MIC) [12] [µM] | Minimal Inhibitory Concentration (MIC) ([13]; 44820, multidrug-resistant) [µM] | Minimal Inhibitory Concentration (MIC) ([14]; 39181, multidrug-resistant) [µM] | Minimal Inhibitory Concentration (MIC) [15, 20] [µM] | Minimal Inhibitory Concentration (MIC) ([16]; 39400, multidrug-resistant) [µM] | appearance of bacteria under scanning electron microscope (Acinetobacter baumannii [17]) | minimum bactericidal concentration (Acinetobacter baumannii [18]; [21]) [µM] | minimal inhibitory concentration (Acinetobacter baumannii [19]; [21]) [µM] | also measured
1 | CC[C@H](C)[C@H](NC(=O)[C@H](C)NC(=O)[C@H](CCCCN)NC(=O)[C@H](CCC(N)=O)NC(=O)[C@@H](NC(=O)[C@H](C)NC(=O)[C@@H](NC(=O)[C@H](CC(C)C)NC(=O)[C@H](CCCCN)NC(=O)[C@H](CCC(=O)O)NC(=O)[C@H](CC(C)C)NC(=O)[C@H](C)NC(=O)[C@H](CCCCN)NC(=O)[C@@H](N)CCC(=O)O)[C@@H](C)CC)[C@@H](C)CC)C(=O)N[C@@H](CCCCN)C(=O)NCC(=O)N[C@@H](CCSC)C(=O)N[C@@H](CC(C)C)C(=O)N[C@@H](CC(N)=O)C(=O)NCC(=O)N[C@@H](Cc1c[nH]c2ccccc12)C(=O)N[C@@H](Cc1ccccc1)C(=O)N[C@H](C(=O)NCC(=O)N[C@H](C(=O)N[C@@H](Cc1ccccc1)C(=O)N[C@@H](CCCNC(=N)N)C(=O)N[C@@H](CCCNC(=N)N)C(=O)N[C@@H](CCCCN)C(=O)N[C@@H](CCCNC(=N)N)C(=O)O)C(C)C)[C@@H](C)O [LysAB2 113-145 G1] (H-EKALEKLIAIQKAIKGMLNGWFTGVFRRKR-OH; N-terminus and C-terminus assumed) | 8 | 8 | 16 | 16 | 8 | 8 | 8 | 8 | 8 | 8 | 16 | 16 | 8 | 8 | 8 | 8 |  |  |  | 
2 | CC[C@H](C)[C@H](NC(=O)[C@H](C)NC(=O)[C@H](CCCCN)NC(=O)[C@H](CCC(N)=O)NC(=O)[C@@H](NC(=O)[C@H](C)NC(=O)[C@@H](NC(=O)[C@H](CC(C)C)NC(=O)[C@H](CCCCN)NC(=O)[C@H](CCC(=O)O)NC(=O)[C@H](CC(C)C)NC(=O)[C@H](C)NC(=O)[C@H](CCCCN)NC(=O)[C@@H](N)CCC(=O)O)[C@@H](C)CC)[C@@H](C)CC)C(=O)N[C@@H](CCCCN)C(=O)NCC(=O)N[C@@H](CCSC)C(=O)N[C@@H](CC(C)C)C(=O)N[C@@H](C)C(=O)NCC(=O)N[C@@H](Cc1c[nH]c2ccccc12)C(=O)N[C@@H](Cc1ccccc1)C(=O)N[C@H](C(=O)NCC(=O)N[C@H](C(=O)N[C@@H](C)C(=O)N[C@@H](CCCNC(=N)N)C(=O)N[C@@H](CCCNC(=N)N)C(=O)N[C@@H](CCCCN)C(=O)N[C@@H](CCCNC(=N)N)C(=O)O)C(C)C)[C@@H](C)O [LysAB2 113-145 G3] (H-EKALEKLIAIQKAIKGMLAGWFTGVARRKR-OH) | 16 | 16 | 32 | 32 |  |  |  |  | 16 | 16 | 16 | 16 |  |  |  |  |  |  |  | Minimum Bactericidal Concentration (MBC) [5]; 44820: 16 µM; Minimum Bactericidal Concentration (MBC) [6]; 39181: 16 µM; Minimum Bactericidal Concentration (MBC) ([7]; BCRC 80276): 16 µM; Minimum Bactericidal Concentration (MBC) [8]; 39400: 16 µM; Minimal Inhibitory Concentration (MIC) [13]; 44820: 16 µM; Minimal Inhibitory Concentration (MIC) [14]; 39181: 16 µM; Minimal Inhibitory Concentration (MIC) ([15]; BCRC 80276): 16 µM; Minimal Inhibitory Concentration (MIC) [16]; 39400: 16 µM
3 | CC[C@H](C)[C@H](NC(=O)[C@H](C)NC(=O)[C@@H](NC(=O)[C@H](CCC(N)=O)NC(=O)[C@@H](NC(=O)[C@H](C)NC(=O)[C@@H](NC(=O)[C@H](CC(C)C)NC(=O)[C@@H]1CCCN1C(=O)[C@H](CCC(=O)O)NC(=O)[C@H](CC(C)C)NC(=O)[C@H](C)NC(=O)[C@H](CCCCN)NC(=O)[C@H](CCC(=O)O)NC(=O)[C@@H]1CCCN1C(=O)[C@@H](N)CC(N)=O)[C@@H](C)CC)[C@@H](C)CC)[C@@H](C)CC)C(=O)N[C@@H](CCCCN)C(=O)NCC(=O)N[C@@H](CCSC)C(=O)N[C@@H](CC(C)C)C(=O)N[C@@H](CC(N)=O)C(=O)NCC(=O)N[C@@H](Cc1c[nH]c2ccccc12)C(=O)N[C@@H](Cc1ccccc1)C(=O)N[C@H](C(=O)NCC(=O)N[C@H](C(=O)NCC(=O)N[C@@H](Cc1ccccc1)C(=O)N[C@@H](CCCNC(=N)N)C(=O)N[C@@H](CCCNC(=N)N)C(=O)N[C@@H](CCCCN)C(=O)N[C@@H](CCCNC(=N)N)C(=O)O)C(C)C)[C@@H](C)O [LysAB2 113-145] (H-NPEKALEPLIAIQIAIKGMLNGWFTGVGFRRKR-OH; N-terminus and C-terminus assumed) |  | 64 | 64 | 64 | 64 | 64 | 64 | 64 |  | 64 | 64 | 64 | 64 | 64 | 64 | 64 | surface of the bacterial body is incomplete and has holes thereon, even is broken | 64 (≈ 238 µg/mL) | 64 (≈ 238 µg/mL) | 
4 | CC[C@H](C)[C@H](NC(=O)[C@H](C)NC(=O)[C@H](CCCCN)NC(=O)[C@H](CCC(N)=O)NC(=O)[C@@H](NC(=O)[C@H](C)NC(=O)[C@@H](NC(=O)[C@H](CC(C)C)NC(=O)[C@H](CCCCN)NC(=O)[C@H](CCC(=O)O)NC(=O)[C@H](CC(C)C)NC(=O)[C@H](C)NC(=O)[C@H](CCCCN)NC(=O)[C@H](CCC(=O)O)NC(=O)[C@@H]1CCCN1C(=O)[C@@H](N)CC(N)=O)[C@@H](C)CC)[C@@H](C)CC)C(=O)N[C@@H](CCCCN)C(=O)NCC(=O)N[C@@H](CCSC)C(=O)N[C@@H](CC(C)C)C(=O)N[C@@H](CC(N)=O)C(=O)NCC(=O)N[C@@H](Cc1c[nH]c2ccccc12)C(=O)N[C@@H](Cc1ccccc1)C(=O)N[C@H](C(=O)NCC(=O)N[C@H](C(=O)NCC(=O)N[C@@H](Cc1ccccc1)C(=O)N[C@@H](CCCNC(=N)N)C(=O)N[C@@H](CCCNC(=N)N)C(=O)N[C@@H](CCCCN)C(=O)N[C@@H](CCCNC(=N)N)C(=O)O)C(C)C)[C@@H](C)O [LysAB2 113-145 G4] (H-NPEKALEKLIAIQKAIKGMLNGWFTGVGFRRKR-OH; N-terminus and C-terminus assumed) |  | 4 | 8 | 8 | 4 | 4 | 4 | 4 |  | 4 | 8 | 8 | 4 | 4 | 4 | 4 | incomplete surface and holes thereon | 4 (≈ 15.1 µg/mL) | 4 (≈ 15.1 µg/mL) | minimum bactericidal concentration (Acinetobacter baumannii [18]; [22]): 4 µM (≈ 15.1 µg/mL); minimal inhibitory concentration (Acinetobacter baumannii [19]; [22]): 4 µM (≈ 15.1 µg/mL)
